# Reference: US7935703B2, “Piperazines and piperidines as Mglur5 potentiators” (AstraZeneca AB, priority 2006, dated 2011)
# Target: T1, human mGluR5d (Homo sapiens, UniProt P41594)
# T1 construct: expressed in transfected cells; host or cells: GHEK cells (human embryonic kidney cells expressing glutamate transporter), stated for the IP3 assay
# Test: functional assays for mGluR5 potentiation: [Ca2+]i mobilization (FLIPR), secondary IP3 turnover assay
# Type: cell-based
# Conditions: active in assays described herein; which assay (FLIPR or IP3) is not stated
# Source text: The pharmacological properties of the compounds of the invention can be analyzed using standard assays for functional activity. Examples of glutamate receptor assays are well known in the art as described in for example Aramori et al., Neuron 8:757 (1992), Tanabe et al., Neuron 8:169 (1992), Miller et al., J Neuroscience 15: 6103 (1995), Balazs, et al., J. Neurochemistry 69:151 (1997). The methodology described in these publications is incorporated herein by reference. Conveniently, the compounds of the invention can be studied by means of an assay that measures the mobilization of intracellular calcium, [Ca^2+]i in cells expressing mGluR5.
# Intracellular calcium mobilization was measured by detecting changes in fluorescence of cells loaded with the fluorescent indicator fluo-3. Fluorescent signals were measured using the FLIPR system (Molecular Devices). A two addition experiment was used that could detect compounds that either activate or antagonize the receptor.
# For FLIPR analysis, cells expressing human mGluR5d were seeded on collagen coated clear bottom 96-well plates with black sides and analysis of [Ca^2+]i mobilization was done 24 hours after seeding.
# FLIPR experiments were performed using a laser setting of 0.800 W and a 0.4 second CCD camera shutter speed. Each FLIPR experiment was initiated with 160 μL of buffer present in each well of the cell plate. After each addition of the compound, the fluorescence signal was sampled 50 times at 1 second intervals followed by 3 samples at 5 second intervals. Responses were measured as the peak height of the response within the sample period.
# EC50 and IC50 determinations were made from data obtained from 8-point concentration response curves (CRC) performed in duplicate. Agonist CRC were generated by scaling all responses to the maximal response observed for the plate. Antagonist block of the agonist challenge was normalized to the average response of the agonist challenge in 14 control wells on the same plate.
# We have validated a secondary functional assay for mGluR5d based on Inositol Phosphate (IP3) turnover. IP3 accumulation is measured as an index of receptor mediated phospholipase C turnover. GHEK cells stably expressing the human mGluR5d receptors were incubated with [3H] myo-inositol overnight, washed three times in HEPES buffered saline and pre-incubated for 10 minutes with 10 mM LiCl. Compounds (agonists) were added and incubated for 30 minutes at 37° C. Antagonist and potentiator activity was determined by pre-incubating test compounds for 15 minutes, then incubating in the presence of glutamate or DHPG (EC80 for antagonists, EC30 for potentiators) for 30 minutes. Reactions were terminated by the addition of perchloric acid (5%). […]
# T1 sequence (P41594 21-942 isoform P41594-3 limits assumed): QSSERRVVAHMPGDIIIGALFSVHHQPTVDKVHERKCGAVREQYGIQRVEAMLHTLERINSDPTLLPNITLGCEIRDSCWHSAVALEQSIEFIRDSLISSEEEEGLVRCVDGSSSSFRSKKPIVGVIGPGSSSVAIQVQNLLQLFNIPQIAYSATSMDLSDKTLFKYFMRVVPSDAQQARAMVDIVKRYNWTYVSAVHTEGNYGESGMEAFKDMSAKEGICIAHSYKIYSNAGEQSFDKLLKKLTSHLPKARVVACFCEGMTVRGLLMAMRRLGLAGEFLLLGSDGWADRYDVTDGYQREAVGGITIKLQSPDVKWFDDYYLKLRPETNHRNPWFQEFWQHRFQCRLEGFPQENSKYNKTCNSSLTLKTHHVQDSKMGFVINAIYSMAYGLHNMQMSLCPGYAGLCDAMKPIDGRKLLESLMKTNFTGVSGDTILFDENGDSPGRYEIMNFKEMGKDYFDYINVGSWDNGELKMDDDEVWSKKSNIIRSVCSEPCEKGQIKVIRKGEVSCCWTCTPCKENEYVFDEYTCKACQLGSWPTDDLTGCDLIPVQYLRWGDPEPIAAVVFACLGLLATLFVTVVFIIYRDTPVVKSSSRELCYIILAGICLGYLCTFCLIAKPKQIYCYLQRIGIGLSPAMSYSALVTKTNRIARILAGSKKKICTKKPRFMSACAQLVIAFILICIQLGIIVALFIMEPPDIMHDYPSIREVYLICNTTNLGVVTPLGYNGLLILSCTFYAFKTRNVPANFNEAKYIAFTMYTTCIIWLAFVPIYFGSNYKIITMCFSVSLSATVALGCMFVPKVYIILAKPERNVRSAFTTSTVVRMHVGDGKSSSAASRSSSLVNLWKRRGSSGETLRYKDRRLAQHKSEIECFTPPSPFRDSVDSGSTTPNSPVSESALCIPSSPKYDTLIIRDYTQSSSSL
row,EC50 [nM],Compound
1,600,"O=C(COCc1ccccc1)N1CCN(c2ccccc2)CC1 [Compound 12, 2-Benzyloxy-1-(4-phenyl-piperazin-1-yl)-ethanone]"
2,2300,"C[C@@H]1CN(c2ccc(Cl)cc2Cl)CCN1C(=O)COCc1ccncc1 [Compound 58, 1-[(R)-4-(2,4-Dichloro-phenyl)-2-methyl-piperazin-1-yl]-2-(pyridin-4-ylmethoxy)-ethanone]"
3,5100,"N#Cc1cccnc1N1CCN(C(=O)COCc2ccccc2)CC1 [Compound 23, 2-[4-(2-Benzyloxy-acetyl)-piperazin-1-yl]-nicotinonitrile]"
4,400,"O=C(COCc1ccc(F)cc1)N1CCN(c2ccc(F)cc2F)CC1 [Compound 48, 1-[4-(2,4-Difluoro-phenyl)-piperazin-1-yl]-2-(4-fluoro-benzyloxy)-ethanone]"
